We go through 23 compounds from patent US9919998B2, “Antibacterial agents: Nα-aroyl-N-aryl-phenylalaninamides” (priority 2014, dated 2018).

Common to all, as to format: cell-based
In data set [1] the test system is Mycobacterium tuberculosis H37Rv. Kind of data set: Microplate Alamar Blue assay (MABA) MIC, M. tuberculosis. The conditions noted are these: read-out: MIC Mycobacterium tuberculosis H37Rv. An excerpt:
(§1) Minimal inhibitory concentrations (MICs) in Mycobacterium tuberculosis H37Rv and Mycobacterium avium ATCC 25291 were quantified using microplate Alamar Blue assays as described (MABA; [Collins, L. & Franzblau, S. (1997) Microplate Alamar Blue assay versus BACTEC 460 system for high-throughput screening of compounds against Mycobacterium tuberculosis and Mycobacterium avium. Antimicrob. Agents Chemother. 41, 1004-1009]).
For orientation: The colour change of resazurin is a common sign of viable cells or microbes.

Data set [2] relates to Mycobacterium avium ATCC 25291. The data set is described as follows: Microplate Alamar Blue assay (MABA) MIC, M. avium. Conditions: ATCC25291, M. avium ATCC 25291.
Description: as §1

The test system of data set [3] is Mycobacterium smegmatis ATCC 19420. Kind of data set: Broth microdilution MIC, M. smegmatis. Conditions: Mycolicibacterium smegmatis, ATCC19420, M. smegmatis ATCC 19420; read-out: MIC Mycobacterium smegmatis ATCC 19420. An excerpt: MICs in Mycobacterium smegmatis ATCC 19420 and Mycobacterium smegmatis ATCC 19420 derivatives were quantified using broth microdilution assays as described [Clinical and Laboratory Standards Institute (CLSI/NCCLS) (2009) Methods for Dilution Antimicrobial Susceptibility Tests for Bacteria That Grow Aerobically; Approved Standard, Eighth Edition. CLIS Document M07-A8 (CLIS, Wayne Pa.)].

The test system of data set [4] is Vero E6 ATCC CRL1586 cells. The data set is described as follows: Mammalian-cell cytotoxicity, minimal cytotoxic concentration (CellTiter96). How it is done: Minimal cytotoxic concentrations (MCCs) against mammalian cells in culture were determined using Vero E6 ATCC CRL1586 cells and the CellTiter96 assay kit (Promega, Inc.). […]

Values after ≈ are worked out from the molar mass of the structure shown.

For the compound `Cc1ccccc1C(=O)NC(Cc1ccc(O)cc1)C(=O)Nc1ccccc1N1CCOCC1` (centres unmarked) [IX-156, N-(3-(4-hydroxyphenyl)-1-((2-morpholinophenyl)amino)-1-oxopropan-2-yl)-2-methylbenzamide], the values for the minimum inhibitory concentration (MIC) in data set [1], in data set [2] and in data set [3] were 1.56 µg/mL (≈ 3.39 µM), 3.12 µg/mL (≈ 6.8 µM) and 0.095 µg/mL (≈ 0.207 µM), respectively. Also, the “MCC mammalian cells Vero E6 ATCC CRL1586” value in data set [4] amounted to 81 µg/mL.
The like results for `O=C(NC(Cc1ccccc1)C(=O)Nc1cc(F)ccc1N1CCOCC1)c1ccccc1` (centres unmarked) [IX-157, N-(1-((5-fluoro-2-morpholinophenyl)amino)-1-oxo-3-phenylpropan-2-yl)benzamide] were, in that order, 0.78 µg/mL (≈ 1.74 µM), 1.56 µg/mL (≈ 3.49 µM), 0.047 µg/mL (≈ 0.105 µM) and 48 µg/mL.
For `O=C(NC(Cc1ccccc1)C(=O)Nc1cc(F)ccc1N1CCOCC1)c1ccccc1F` (centres unmarked) [IX-158, 2-fluoro-N-(1-((5-fluoro-2-morpholinophenyl)amino)-1-oxo-3-phenyl-propan-2-yl)benzamide] the same measures were 0.78 µg/mL (≈ 1.68 µM), 0.78 µg/mL (≈ 1.68 µM), 0.097 µg/mL (≈ 0.208 µM) and above 100 µg/mL.
The like results for `Cc1ccccc1C(=O)NC(Cc1ccccc1)C(=O)Nc1cc(F)ccc1N1CCOCC1` (centres unmarked) [IX-159, N-(1-((5-fluoro-2-morpholinophenyl)amino)-1-oxo-3-phenylpropan-2-yl)-2-methylbenzamide] were, in that order, 0.39 µg/mL (≈ 0.845 µM), 0.39 µg/mL (≈ 0.845 µM), 0.047 µg/mL (≈ 0.102 µM) and 10 µg/mL.
Regarding `O=C(NC(Cc1ccccc1)C(=O)Nc1cc(F)ccc1N1CCOCC1)c1cccs1` (centres unmarked) [IX-160, N-(1-((5-fluoro-2-morpholinophenyl)amino)-1-oxo-3-phenylpropan-2-yl)thiophene-2-carboxamide], the results for the minimum inhibitory concentration (MIC) in data set [1], in data set [2] and in data set [3] were 0.78 µg/mL (≈ 1.72 µM), 0.78 µg/mL (≈ 1.72 µM) and 0.097 µg/mL (≈ 0.214 µM), respectively. In data set [4], the “MCC mammalian cells Vero E6 ATCC CRL1586” value was 30 µg/mL.
With `O=C(NC(Cc1ccc(O)cc1)C(=O)Nc1cccc2c1OCCO2)c1ccccc1Br` (centres unmarked) [IX-176, 2-bromo-N-(1-((2,3-dihydrobenzo[b][1,4]dioxin-5-yl)amino)-3-(4-hydroxyphenyl)-1-oxopropan-2-yl)benzamide], the figures for the minimal inhibitory concentration (MIC) in data set [1], in data set [2] and in data set [3] were 6.25 µg/mL (≈ 12.6 µM), 6.25 µg/mL (≈ 12.6 µM) and 3.1 µg/mL (≈ 6.23 µM), respectively. Besides, the “MCC mammalian cells Vero E6 ATCC CRL1586” value in data set [4] came to 100.0 µg/mL.
On to `O=C(NC(Cc1ccccc1)C(=O)Nc1cc(F)ccc1OCF)c1ccccc1F` (centres unmarked) [IX-177, 2-fluoro-N-(1-((5-fluoro-2-(fluoromethoxy)phenyl)amino)-1-oxo-3-phenylpropan-2-yl)benzamide], for which the minimum inhibitory concentration (MIC) (in general, the smallest concentration in the dilution series that meets the test's criterion for growth inhibition) in data set [1] turned out to be 0.39 µg/mL (≈ 0.91 µM); in data set [2] it was 0.78 µg/mL (≈ 1.82 µM); in data set [3], 0.39 µg/mL (≈ 0.91 µM). Moreover, the “MCC mammalian cells Vero E6 ATCC CRL1586” value in data set [4] was above 100 µg/mL.
For `CC(=O)Oc1ccc(CC(NC(=O)c2ccccc2F)C(=O)Nc2ccccc2N2CCOCC2)cc1` (centres unmarked) [IX-180, 4-(2-(2-fluorobenzamido)-3-((2-morpholinophenyl)amino)-3-oxopropyl)phenyl acetate], the minimum inhibitory concentration (MIC) in data set [1] amounted to 1.56 µg/mL; in data set [2] it was 6.25 µg/mL; in data set [3], 0.097 µg/mL. In addition, the “MCC mammalian cells Vero E6 ATCC CRL1586” value in data set [4] was 91 µg/mL.
For `CC(=O)Oc1ccc(CC(NC(=O)c2ccccc2C)C(=O)Nc2ccccc2N2CCOCC2)cc1` (centres unmarked) [IX-181, 4-(2-(2-methylbenzamido)-3-((2-morpholinophenyl)amino)-3-oxopropyl)phenyl acetate], the minimum inhibitory concentration (MIC) in data set [1] came out at 0.78 µg/mL; in data set [2], 3.12 µg/mL; in data set [3], 0.097 µg/mL. Further, the “MCC mammalian cells Vero E6 ATCC CRL1586” value in data set [4] was determined as 84 µg/mL.
The like results for `CC(=O)Oc1ccc(CC(NC(=O)c2cccs2)C(=O)Nc2ccccc2N2CCOCC2)cc1` (centres unmarked) [IX-182, 4-(3-((2-morpholinophenyl)amino)-3-oxo-2-(thiophene-2-carbox-amido)propyl)phenyl acetate] were, in that order, 0.78 µg/mL, 3.12 µg/mL, 0.097 µg/mL and 99 µg/mL.
Regarding `O=C(NC(Cc1ccc(O)cc1)C(=O)Nc1ccccc1N1CCOCC1)c1cccs1` (centres unmarked) [IX-183, N-(3-(4-hydroxyphenyl)-1-((2-morpholinophenyl)amino)-1-oxopropan-2-yl)thiophene-2-carboxamide], the minimum inhibitory concentration (MIC) in data set [1] turned out to be 1.56 µg/mL (≈ 3.45 µM); in data set [2], 6.25 µg/mL (≈ 13.8 µM); in data set [3], 0.097 µg/mL (≈ 0.215 µM). Also, the “MCC mammalian cells Vero E6 ATCC CRL1586” value in data set [4] is above 100 µg/mL.
The like results for `Cc1ccc(F)cc1NC(=O)C(Cc1ccc(O)cc1)NC(=O)c1ccccc1F` (centres unmarked) [IX-184, 2-fluoro-N-(1-((5-fluoro-2-methylphenyl)amino)-3-(4-hydroxy-phenyl)-1-oxopropan-2-yl)benzamide] were, in that order, 1.56 µg/mL (≈ 3.8 µM), 3.12 µg/mL (≈ 7.61 µM), 0.39 µg/mL (≈ 0.95 µM) and 77 µg/mL.
Regarding `Cc1ccc(F)cc1NC(=O)C(Cc1ccc(O)cc1)NC(=O)c1ccccc1C` (centres unmarked) [IX-186, N-(1-((5-fluoro-2-methylphenyl)amino)-3-(4-hydroxyphenyl)-1-oxopropan-2-yl)-2-methylbenzamide], the results for the MIC in data set [1], in data set [2] and in data set [3] were 1.56 µg/mL (≈ 3.84 µM), 3.12 µg/mL (≈ 7.69 µM) and 0.39 µg/mL (≈ 0.96 µM), respectively. Also, in data set [4], the “MCC mammalian cells Vero E6 ATCC CRL1586” value stood at 78 µg/mL.
Take `Cc1ccc(F)cc1NC(=O)C(Cc1ccc(O)cc1)NC(=O)c1cccs1` (centres unmarked) [IX-188, N-(1-((5-fluoro-2-methylphenyl)amino)-3-(4-hydroxyphenyl)-1-oxopropan-2-yl)thiophene-2-carboxamide]: the minimal inhibitory concentration (MIC) was 1.56 µg/mL (≈ 3.92 µM) in data set [1], 1.56 µg/mL (≈ 3.92 µM) in data set [2] and 0.097 µg/mL (≈ 0.243 µM) in data set [3]. For the same compound, the “MCC mammalian cells Vero E6 ATCC CRL1586” value in data set [4] came to 48 µg/mL.
With `Cc1ccccc1C(=O)NC(Cc1ccccc1)C(=O)Nc1cccc2[nH]ncc12` (centres unmarked) [IX-191, N-(1-((1H-indazol-4-yl)amino)-1-oxo-3-phenylpropan-2-yl)-2-methyl-benzamide], the minimum inhibitory concentration (MIC) in data set [1] was 12.5 µg/mL (≈ 31.4 µM); in data set [2], 12.5 µg/mL (≈ 31.4 µM); in data set [3], 0.39 µg/mL (≈ 0.979 µM). Further, the “MCC mammalian cells Vero E6 ATCC CRL1586” value in data set [4] is above 100 µg/mL.
`O=C(NC(Cc1ccccc1)C(=O)Nc1cccc2[nH]ncc12)c1cccs1` (centres unmarked) [IX-201, N-(1-((1H-indazol-4-yl)amino)-1-oxo-3-phenylpropan-2-yl)thiophene-2-carboxamide]: the minimal inhibitory concentration (MIC) in data set [1] was determined as 25 µg/mL (≈ 64 µM); in data set [2], 12.5 µg/mL (≈ 32 µM); in data set [3] it was 0.09 µg/mL (≈ 0.23 µM). The “MCC mammalian cells Vero E6 ATCC CRL1586” value in data set [4] is 47 µg/mL.
The like results for `COc1ccc(F)cc1NC(=O)C(Cc1ccc(O)cc1)NC(=O)c1ccccc1` (centres unmarked) [IX-203, N-(1-((5-fluoro-2-methoxyphenyl)amino)-3-(4-hydroxyphenyl)-1-oxopropan-2-yl)benzamide] were, in that order, 0.78 µg/mL (≈ 1.91 µM), 0.78 µg/mL (≈ 1.91 µM), 0.195 µg/mL (≈ 0.477 µM) and above 100 µg/mL.
For the compound `COc1ccc(F)cc1NC(=O)C(Cc1ccc(O)cc1)NC(=O)c1ccccc1C` (centres unmarked) [IX-205, N-(1-((5-fluoro-2-methoxyphenyl)amino)-3-(4-hydroxyphenyl)-1-oxopropan-2-yl)-2-methylbenzamide], the MIC in data set [1] was 0.78 µg/mL (≈ 1.85 µM); in data set [2] it was 0.78 µg/mL (≈ 1.85 µM); in data set [3], 0.39 µg/mL (≈ 0.923 µM). Also, in data set [4], the “MCC mammalian cells Vero E6 ATCC CRL1586” value stood at 70 µg/mL.
Regarding `COc1ccc(F)cc1NC(=O)C(Cc1ccc(O)cc1)NC(=O)c1cccs1` (centres unmarked) [IX-206, N-(1-((5-fluoro-2-methoxyphenyl)amino)-3-(4-hydroxyphenyl)-1-oxopropan-2-yl)thiophene-2-carboxamide], the MIC in data set [1] was 0.78 µg/mL (≈ 1.88 µM); in data set [2] it was 0.39 µg/mL (≈ 0.941 µM); in data set [3] it was 0.195 µg/mL (≈ 0.47 µM). The “MCC mammalian cells Vero E6 ATCC CRL1586” value in data set [4] stood at 70 µg/mL.
The like results for `O=C(NC(Cc1ccc(O)cc1)C(=O)Nc1ccccc1N1CCNCC1)c1cccs1` (centres unmarked) [IX-219, N-(3-(4-hydroxyphenyl)-1-oxo-1-((2-(piperazin-1-yl)phenyl)amino)-propan-2-yl)thiophene-2-carboxamide] were, in that order, 1.56 µg/mL (≈ 3.46 µM), 3.12 µg/mL (≈ 6.94 µM), 0.78 µg/mL (≈ 1.73 µM) and 69 µg/mL.
For the compound `O=C(NC(Cc1ccc(O)cc1)C(=O)Nc1cc(F)ccc1N1CCNCC1)c1cccs1` (centres unmarked) [IX-222, N-(1-((5-fluoro-2-(piperazin-1-yl)phenyl)amino)-3-(4-hydroxyphen-yl)-1-oxopropan-2-yl)thiophene-2-carboxamide], the minimum inhibitory concentration (MIC) in data set [1] was 1.56 µg/mL (≈ 3.33 µM); in data set [2], 1.56 µg/mL (≈ 3.33 µM); in data set [3] it was 0.78 µg/mL (≈ 1.66 µM). For the same compound, in data set [4], the “MCC mammalian cells Vero E6 ATCC CRL1586” value is 38 µg/mL.
For `O=C(NC(Cc1ccccc1)C(=O)Nc1cccc2[nH]nnc12)c1ccccc1` (centres unmarked) [IX-223, N-(1-((1H-benzo[d][1,2,3]triazol-4-yl)amino)-1-oxo-3-phenylpropan-2-yl)benzamide], the MIC in data set [1] worked out at 25 µg/mL (≈ 64.9 µM); in data set [2] it was 50 µg/mL (≈ 130 µM); in data set [3], 0.78 µg/mL (≈ 2.02 µM). Besides, the “MCC mammalian cells Vero E6 ATCC CRL1586” value in data set [4] came to 64 µg/mL.
For `Cn1nnc2cccc(NC(=O)C(Cc3ccccc3)NC(=O)c3ccccc3)c21` (centres unmarked) [IX-224, N-(1-((1-methyl-1H-benzo[d][1,2,3]triazol-7-yl)amino)-1-oxo-3-phenylpropan-2-yl)benzamide] the same measures were 6.25 µg/mL (≈ 15.6 µM), 25 µg/mL (≈ 62.6 µM), 0.39 µg/mL (≈ 0.976 µM) and above 100 µg/mL.
